target: PARP7 (Homo sapiens (Human), UniProt Q7Z3E1); assay: Enzymatic assay for inhibition of PARP7: TR-FRET displacement of biotinylated Probe A from the TIPARP active site; assay type: binding; conditions: Table A-1
Summary of the method: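 Compound dose-response series were incubated with TIPARP and biotinylated Probe A, with a final 30 min step at 25 °C. TR-FRET was read at 320 nm excitation, 615/665 nm emission and 90 μs delay, using the 665/615 ratio to measure complex formation. % inhibition was fitted with a floating or fixed (1) Hill coefficient.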

Sequence of PARP7 (Q7Z3E1 whole entry): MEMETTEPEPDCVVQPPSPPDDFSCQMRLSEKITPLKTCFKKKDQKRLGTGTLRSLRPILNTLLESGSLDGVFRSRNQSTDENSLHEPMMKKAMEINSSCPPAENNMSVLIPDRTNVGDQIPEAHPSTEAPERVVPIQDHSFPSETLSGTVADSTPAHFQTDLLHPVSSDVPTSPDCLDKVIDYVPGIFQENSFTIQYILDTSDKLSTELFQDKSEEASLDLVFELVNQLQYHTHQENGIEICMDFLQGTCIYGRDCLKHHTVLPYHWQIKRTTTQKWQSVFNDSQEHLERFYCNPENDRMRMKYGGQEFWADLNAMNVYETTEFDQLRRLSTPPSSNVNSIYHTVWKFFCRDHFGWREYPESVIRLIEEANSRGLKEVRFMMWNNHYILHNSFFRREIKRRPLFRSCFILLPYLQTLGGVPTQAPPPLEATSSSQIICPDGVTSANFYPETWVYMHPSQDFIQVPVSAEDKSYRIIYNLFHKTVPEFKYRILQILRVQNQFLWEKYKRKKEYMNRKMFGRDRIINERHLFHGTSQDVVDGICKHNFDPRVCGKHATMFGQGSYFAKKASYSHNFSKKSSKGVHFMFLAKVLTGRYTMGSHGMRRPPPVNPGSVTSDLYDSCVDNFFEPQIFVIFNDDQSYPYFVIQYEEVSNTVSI

| IC50 | Structure (SMILES) |
| --- | --- |
| ≥ 1000 nM | CNCc1cccc2c1CN(c1cn[nH]c(=O)c1C(F)(F)F)C2 [Example 262, 5-(4-((Methylamino)methyl)isoindolin-2-yl)-4-(trifluoromethyl)pyridazin-3(2H)-one] |
| < 100 nM | CN1CCC(Oc2ccc3c(c2)CN(c2cn[nH]c(=O)c2C(F)(F)F)C3)CC1 [Example 263, 5-(5-((1-Methylpiperidin-4-yl)oxy)isoindolin-2-yl)-4-(trifluoromethyl)pyridazin-3(2H)-one] |
| ≥ 1000 nM | CC(=O)NCC1c2ccccc2CN1c1cn[nH]c(=O)c1C(F)(F)F (stereo not shown) [Example 264, N-((2-(6-Oxo-5-(trifluoromethyl)-1,6-dihydropyridazin-4-yl)isoindolin-1-yl)methyl)acetamide] |
| < 100 nM | O=c1[nH]ncc(N2Cc3cccc(Cl)c3C2)c1C(F)(F)F [Example 265, 5-(4-Chloroisoindolin-2-yl)-4-(trifluoromethyl)pyridazin-3(2H)-one] |
| < 100 nM | O=c1[nH]ncc(N2Cc3cccc(NCc4ccncc4)c3C2)c1C(F)(F)F [Example 266, 5-(4-((Pyridin-4-ylmethyl)amino)isoindolin-2-yl)-4-(trifluoromethyl)pyridazin-3(2H)-one] |
| < 100 nM | COc1ccc(F)c2c1CN(c1cn[nH]c(=O)c1C(F)(F)F)C2 [Example 267, 5-(4-Fluoro-7-methoxyisoindolin-2-yl)-4-(trifluoromethyl)pyridazin-3(2H)-one] |
| < 100 nM | O=c1[nH]ncc(N2Cc3cccc(OC4CCCOC4)c3C2)c1C(F)(F)F (stereo not shown) [Example 268, 5-(4-((Tetrahydro-2H-pyran-3-yl)oxy)isoindolin-2-yl)-4-(trifluoromethyl)pyridazin-3(2H)-one] |
| < 100 nM | NC(=O)c1cccc2c1CN(c1cn[nH]c(=O)c1C(F)(F)F)C2 [Example 269, 2-(6-Oxo-5-(trifluoromethyl)-1,6-dihydropyridazin-4-yl)isoindoline-4-carboxamide] |
| < 100 nM | CN(CC1CCCO1)c1cccc2c1CN(c1cn[nH]c(=O)c1C(F)(F)F)C2 (stereo not shown) [Example 270, 5-(4-(Methyl((tetrahydrofuran-2-yl)methyl)amino)isoindolin-2-yl)-4-(trifluoromethyl)pyridazin-3(2H)-one] |
| < 100 nM | CC(Nc1cccc2c1CN(c1cn[nH]c(=O)c1C(F)(F)F)C2)c1ccncc1 (stereo not shown) [Example 271, 5-(4-((1-(Pyridin-4-yl)ethyl)amino)isoindolin-2-yl)-4-(trifluoromethyl)pyridazin-3(2H)-one] |
| ≥ 1000 nM | CCc1c(N2Cc3cccc(OC4CCNCC4)c3C2)cn[nH]c1=O [Example 272, 4-Ethyl-5-(4-(piperidin-4-yloxy)isoindolin-2-yl)pyridazin-3(2H)-one] |
| < 100 nM | COc1cc(F)c2c(c1)CN(c1cn[nH]c(=O)c1C(F)(F)F)C2 [Example 273, 5-(4-Fluoro-6-methoxyisoindolin-2-yl)-4-(trifluoromethyl)pyridazin-3(2H)-one] |
| < 100 nM | COc1cc(F)cc2c1CN(c1cn[nH]c(=O)c1C(F)(F)F)C2 [Example 274, 5-(6-Fluoro-4-methoxyisoindolin-2-yl)-4-(trifluoromethyl)pyridazin-3(2H)-one] |
| ≥ 1000 nM | NCC1c2ccccc2CN1c1cn[nH]c(=O)c1C(F)(F)F (stereo not shown) [Example 275, 5-(1-(Aminomethyl)isoindolin-2-yl)-4-(trifluoromethyl)pyridazin-3(2H)-one] |
| ≥ 1000 nM | CC(=O)N(C)CC1c2ccccc2CN1c1cn[nH]c(=O)c1C(F)(F)F (stereo not shown) [Example 276, N-Methyl-N-((2-(6-oxo-5-(trifluoromethyl)-1,6-dihydropyridazin-4-yl)isoindolin-1-yl)methyl)acetamide] |
| 100 to 1000 nM | CN(C)C(=O)c1cccc2c1CN(c1cn[nH]c(=O)c1C(F)(F)F)C2 [Example 277, N,N-Dimethyl-2-(6-oxo-5-(trifluoromethyl)-1,6-dihydropyridazin-4-yl)isoindoline-4-carboxamide] |
| 100 to 1000 nM | CC(O)c1cccc2c1CN(c1cn[nH]c(=O)c1C(F)(F)F)C2 (stereo not shown) [Example 278, 5-(4-(1-Hydroxyethyl)isoindolin-2-yl)-4-(trifluoromethyl)pyridazin-3(2H)-one] |
| < 100 nM | O=c1[nH]ncc(N2Cc3cc(F)c(OC4CCNCC4)cc3C2)c1C(F)(F)F [Example 279, 5-(5-Fluoro-6-(piperidin-4-yloxy)isoindolin-2-yl)-4-(trifluoromethyl)pyridazin-3(2H)-one] |

| IC50 | Structure (SMILES) |
| --- | --- |
| 100 to 1000 nM | CN(C)C1CCN(c2cccc3c2CN(c2cn[nH]c(=O)c2C(F)(F)F)C3)CC1 [Example 281, 5-(4-(4-(Dimethylamino)piperidin-1-yl)isoindolin-2-yl)-4-(trifluoromethyl)pyridazin-3(2H)-one] |
| 100 to 1000 nM | CN(c1cccc2c1CN(c1cn[nH]c(=O)c1C(F)(F)F)C2)C1CCOCC1 [Example 282, 5-(4-(Methyl(tetrahydro-2H-pyran-4-yl)amino)isoindolin-2-yl)-4-(trifluoromethyl)pyridazin-3(2H)-one] |
| 100 to 1000 nM | O=c1[nH]ncc(N2Cc3c(F)ccc(OCCO)c3C2)c1C(F)(F)F [Example 283, 5-(4-Fluoro-7-(2-hydroxyethoxy)isoindolin-2-yl)-4-(trifluoromethyl)pyridazin-3(2H)-one] |
| < 100 nM | O=c1[nH]ncc(N2Cc3cccc(N4CCCC4)c3C2)c1C(F)(F)F [Example 284, 5-(4-(Pyrrolidin-1-yl)isoindolin-2-yl)-4-(trifluoromethyl)pyridazin-3(2H)-one] |
| < 100 nM | CN(C)C1CCN(c2cccc3c2CN(c2cn[nH]c(=O)c2C(F)(F)F)C3)C1 (stereo not shown) [Example 285, 5-(4-(3-(Dimethylamino)pyrrolidin-1-yl)isoindolin-2-yl)-4-(trifluoromethyl)pyridazin-3(2H)-one] |
| < 100 nM | O=c1[nH]ncc(N2Cc3c(F)ccc(OCCN4CCOCC4)c3C2)c1C(F)(F)F [Example 286, 5-(4-Fluoro-7-(2-morpholinoethoxy)isoindolin-2-yl)-4-(trifluoromethyl)pyridazin-3(2H)-one] |
| ≥ 1000 nM | CC(C)c1c(N2Cc3ccc(OC4CCCNC4)cc3C2)cn[nH]c1=O (stereo not shown) [Example 287, 4-Isopropyl-5-(5-(piperidin-3-yloxy)isoindolin-2-yl)pyridazin-3(2H)-one] |
| < 100 nM | O=c1[nH]ncc(N2Cc3ccc(O[C@@H]4CCCNC4)cc3C2)c1C(F)(F)F [Example 288, (R)-5-(5-(Piperidin-3-yloxy)isoindolin-2-yl)-4-(trifluoromethyl)pyridazin-3(2H)-one] |
| < 100 nM | O=c1[nH]ncc(N2Cc3ccc(O[C@H]4CCCNC4)cc3C2)c1C(F)(F)F [Example 289, (S)-5-(5-(Piperidin-3-yloxy)isoindolin-2-yl)-4-(trifluoromethyl)pyridazin-3(2H)-one] |
| 100 to 1000 nM | O=c1[nH]ncc(N2Cc3cccc(NC4CCOCC4)c3C2)c1C(F)(F)F [Example 290, 5-(4-((Tetrahydro-2H-pyran-4-yl)amino)isoindolin-2-yl)-4-(trifluoromethyl)pyridazin-3(2H)-one] |
| 100 to 1000 nM | O=c1[nH]ncc(N2Cc3c(F)ccc(OC4CCNCC4)c3C2)c1C(F)(F)F [Example 291, 5-(4-Fluoro-7-(piperidin-4-yloxy)isoindolin-2-yl)-4-(trifluoromethyl)pyridazin-3(2H)-one] |
| ≥ 1000 nM | CC(C)c1c(N2Cc3ccc(O[C@@H]4CCCNC4)cc3C2)cn[nH]c1=O [Example 292, (R)-4-Isopropyl-5-(5-(piperidin-3-yloxy)isoindolin-2-yl)pyridazin-3(2H)-one] |
| ≥ 1000 nM | CC(C)c1c(N2Cc3ccc(O[C@H]4CCCNC4)cc3C2)cn[nH]c1=O [Example 293, (S)-4-Isopropyl-5-(5-(piperidin-3-yloxy)isoindolin-2-yl)pyridazin-3(2H)-one] |
| < 100 nM | CC(=O)N1CCN(c2cccc3c2CN(c2cn[nH]c(=O)c2C(F)(F)F)C3)CC1 [Example 294, 5-(4-(4-Acetylpiperazin-1-yl)isoindolin-2-yl)-4-(trifluoromethyl)pyridazin-3(2H)-one] |
| 100 to 1000 nM | NC1CCN(c2cccc3c2CN(c2cn[nH]c(=O)c2C(F)(F)F)C3)CC1 [Example 296, 5-(4-(4-Aminopiperidin-1-yl)isoindolin-2-yl)-4-(trifluoromethyl)pyridazin-3(2H)-one] |
| 100 to 1000 nM | O=c1[nH]ncc(N2Cc3cccc(NC4CCNCC4)c3C2)c1C(F)(F)F [Example 297, 5-(4-(Piperidin-4-ylamino)isoindolin-2-yl)-4-(trifluoromethyl)pyridazin-3(2H)-one] |
| 100 to 1000 nM | CC1(C)CC(Nc2cccc3c2CN(c2cn[nH]c(=O)c2C(F)(F)F)C3)CC(C)(C)N1 [Example 300, 5-(4-((2,2,6,6-Tetramethylpiperidin-4-yl)amino)isoindolin-2-yl)-4-(trifluoromethyl)pyridazin-3(2H)-one] |
| 100 to 1000 nM | NC1CCCN(c2cccc3c2CN(c2cn[nH]c(=O)c2C(F)(F)F)C3)C1 (stereo not shown) [Example 301, 5-(4-(3-Aminopiperidin-1-yl)isoindolin-2-yl)-4-(trifluoromethyl)pyridazin-3(2H)-one] |

| Structure (SMILES) | IC50 |
| --- | --- |
| O=c1[nH]ncc(N2Cc3ccncc3C2)c1C(F)(F)F [Example 280, 5-(1,3-Dihydro-2H-pyrrolo[3,4-c]pyridin-2-yl)-4-(trifluoromethyl)pyridazin-3(2H)-one] | 100 to 1000 nM |
| O=c1[nH]ncc(N2Cc3cccc(N4CCNCC4)c3C2)c1C(F)(F)F [Example 295, 5-(4-(Piperazin-1-yl)isoindolin-2-yl)-4-(trifluoromethyl)pyridazin-3(2H)-one] | 100 to 1000 nM |
| CN(c1cccc2c1CN(c1cn[nH]c(=O)c1C(F)(F)F)C2)C1CCNCC1 [Example 302, 5-(4-(Methyl(piperidin-4-yl)amino)isoindolin-2-yl)-4-(trifluoromethyl)pyridazin-3(2H)-one] | 100 to 1000 nM |
| COc1ccc2c(n1)CN(c1cn[nH]c(=O)c1C(F)(F)F)C2 [Example 303, 5-(2-Methoxy-5,7-dihydro-6H-pyrrolo[3,4-b]pyridin-6-yl)-4-(trifluoromethyl)pyridazin-3(2H)-one] | < 100 nM |
